From publication PMC6720452, “Structural Basis for Recruitment of DAPK1 to the KLHL20 E3 Ligase” (Structure(London, England:1993), 2019)

Key:
Kelch domain of KEAP1 = details: ref Tong et al., 2006; cited from earlier work
From the text: However, this is weaker than the low nanomolar binding observed for NRF2 interaction with the Kelch domain of KEAP1 ([Tong et al., 2006]). These differences may reflect the strict regulation of NRF2, which ensures its constitutive degradation, or the requirement for substrate co-adaptors as found for KLHL12 ([McGourty et al., 2016]). Alternatively, t ...

Kelch domain of KLHL20 = biological target: T1, Kelch domain of KLHL20 (Homo sapiens, UniProt Q9Y2M5); assay: Surface plasmon resonance, immobilized KLHL20; details: SPR, BIACORE S200, CM5 chip, amine coupling, 25°C, HBS-P buffer, 30 μL/min, peptide 1.6-200 μM, one-site steady-state affinity; representative of two independent experiments; N.B., no binding detected
T1 construct: human KLHL20 (Uniprot Q9Y2M5 isoform 1, M303-E605); hexahistidine tag with TEV cleavage site (N); made in house; host or cells: E. coli BL21(DE3)R3-pRARE2
T1 sequence (Q9Y2M5 303-605): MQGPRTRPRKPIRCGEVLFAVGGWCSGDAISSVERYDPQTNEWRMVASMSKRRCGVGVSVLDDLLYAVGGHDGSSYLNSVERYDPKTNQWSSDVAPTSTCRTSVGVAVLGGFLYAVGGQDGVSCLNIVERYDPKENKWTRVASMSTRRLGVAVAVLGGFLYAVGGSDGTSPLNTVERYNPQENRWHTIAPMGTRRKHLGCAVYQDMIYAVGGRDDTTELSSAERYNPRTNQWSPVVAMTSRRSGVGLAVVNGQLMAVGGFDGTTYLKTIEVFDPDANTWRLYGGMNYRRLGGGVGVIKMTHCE
Method: (C) For SPR experiments, KLHL20 and KLHL3 Kelch domains were immobilized by amine coupling on different flow cells of a CM5 sensor chip. Indicated DAPK1 peptides were injected subsequently at concentrations of 1.6 μM, 3.1 μM, 6.2 μM, 12.5 μM, 25 μM, 50 μM, 100 μM, and 200 μM. Binding was monitored at a flow rate of 30 μL/min. […] Data were fitted using a steady-state affinity equation.
Assays were performed at 25°C using a BIACORE S200 (GE Healthcare) surface plasmon resonance (SPR) instrument. The Kelch domains of KLHL20 and KLHL3 were immobilized on sensor chip CM5 (GE Healthcare) using amine coupling. […] Binding was monitored using a flow rate of 30 μL/min. The peptide analytes were prepared in HBS-P buffer (GE Healthcare). Data reported were after reference flow cell signal subtraction. Data were analyzed by one-site steady-state affinity analysis using the Biacore S200 Evaluation software and the fitting equation Req=CRmax/KD+C+RI . (RI, bulk refractive index contribution; Rmax, maximum response; KD, dissociation constant; C, analyte concentration).

## NRF2: NRF2, interaction with the Kelch domain of KEAP1
Kelch domain of KEAP1
  Binding affinity for KEAP1 Kelch domain: low nanomolar

## SKLRELGRRDAADFLLKA [DAPK1 peptide spanning the C-terminal site residues 1,378–1,395]
Kelch domain of KLHL20
  KD (μM), Immobilized Protein: KLHL20: N.B
